From patent US9951292B2, “Grease composition” (TOTAL MARKETING SERVICES, priority 2011, dated 2018)

What was measured:
algae and daphnia = assay: Aquatic toxicity to algae and daphnia according to standards OECD 201 and 202; assay type: in vivo
Excerpt: Preferably, the grease compositions according to the invention contain additives which are not hazardous to the environment and human health. Preferably, the grease compositions according to the invention are free from organic halogenated compounds, nitrite type compounds, metals or metallic compounds other than sodium, potassium, magnesium, calcium, lithium and/or aluminium. Preferably, the grease compositions according to the invention are not toxic to the aquatic environment. In particular the grease compositions according to the invention have an aquatic toxicity to algae, daphnia and fish of at least 1000 mg/l according to standards OECD 201, 202 and 203.
Similarly, the main constituents of the grease, i.e. those present at more than 5% by mass with respect to the total mass of the grease composition, such as the base oil and the soap, have an aquatic toxicity to algae and daphnia of at least 100 mg/l according to standards OECD 201 and 202.
Similarly, when a constituent has an aquatic toxicity to algae and daphnia of at least 100 mg/l according to standards OECD 201 and 202 (category D), said constituent can be present in the grease at any concentration. The grease compositions according to the invention have a concentration by mass of constituents having an aquatic toxicity to algae and daphnia comprised between 10 mg/l and 100 mg/l according to standards OECD 201 and 202 (category E), less than or equal to 25%. The grease compositions according to the invention have a concentration by mass of constituents having an aquatic toxicity to algae and daphnia comprised between 1 mg/l and 10 mg/l according to standards OECD 201 and 202 (category F), less than or equal to 2%, preferably less than or equal to 1%. This only concerns the constituents of the grease the concentration by mass in the grease of which is greater than or equal to 0.1%.

[1] = Biodegradability according to standard OECD 301B
Excerpt: This only concerns the constituents of the grease the concentration by mass in the grease of which is greater than or equal to 0.1%.

| Molecule | aquatic toxicity to algae and daphnia (algae and daphnia; in vivo) | aquatic toxicity to algae and daphnia (algae and daphnia; OECD 201 and 202) | aquatic toxicity to algae and daphnia, category (algae and daphnia; OECD 201 and 202) | biodegradability [1] |
| --- | --- | --- | --- | --- |
| CCCCCCCCCCCCCCCCCCOC(=O)CCc1cc(C(C)(C)C)c(O)c(C(C)(C)C)c1 [antioxidant 2, Octadecyl 3-(3,5-ditertiobutyl-4-hydroxyphenyl) propanoate] | over 100 mg/l |  |  |  |
| CCCCCCC(O)CCCCCCCCCCC(=O)[O-].[Li+] (centres unmarked) [lithium 12-hydroxystearate] |  | over 100 mg/l | D (aquatic toxicity to algae and daphnia of at least 100 mg/l according to standards OECD 201 and 202 (category D)) |  |
| Tolyltriazole [corrosion inhibitor 2] | 1 to 10 mg/L |  |  | 4% |
